Test: log P by HPLC on a reversed-phase column (C18), EEC Directive 79/831 Annex V.A8
Type: physicochemical
Experimental: The stated log P values were determined in accordance with EEC Directive 79/831 Annex V.A8 by HPLC (High Performance Liquid Chromatography) using a reversed-phase column (C18).

[1] = HPLC, reversed-phase C18, mobile phase with formic acid
[2] = HCOOH, Table 4, compounds of formula I-A-Q4

SMILES | log P (HCOOH) (HCOOH) | further results
CC(NC(=O)c1ccc(-n2nc(C(F)(F)F)c(-c3ccccc3Cl)c2N)cc1)c1ccccc1 (stereo not shown) [I-A-Q2-081] | I-A-Q2-081: log P (HCOOH): 3.58 | –
Cc1cc(-n2nc(C(F)(F)F)c(-c3cc(F)cc(Cl)c3)c2N)ccc1C(=O)NCC(F)(F)C(F)F [I-A-Q2-301] | I-A-Q2-301: log P (HCOOH): 3.75 | –
N#Cc1cc(-n2nc(C(F)(F)Oc3ccccc3)c(-c3cc(Cl)cc(C(F)(F)F)c3)c2N)ccc1-n1cncn1 [I-A-Q1-074] | – | log P (HCOOH) [1]: I-A-Q1-074: log P (HCOOH): 4.33
N#Cc1cc(-n2nc(C(F)(F)F)c(-c3cc(Cl)cc(Cl)c3)c2N)ccc1S(=O)(=O)NC1CCC1 [I-A-Q4-122] | – | log P (HCOOH) [2]: I-A-Q4-122: log P (HCOOH): 4.69
CC(NC(=O)c1ccc(-n2nc(-c3ccccc3)c(-c3ccc(Cl)cc3)c2N)cc1)c1ccccc1 (stereo not shown) [I-A-Q2-077] | I-A-Q2-077: log P (HCOOH): 4.17 | –
Cc1nn(-c2ccc(-n3cncn3)c(C#N)c2)c(N)c1-c1ccc(F)cc1 [I-A-Q1-059] | – | log P (HCOOH) [1]: I-A-Q1-059: log P (HCOOH): 2.30
Cc1nn(-c2ccc(Cl)cn2)c(N)c1-c1c(Cl)cccc1Cl [I-A-Q4-029] | – | log P (HCOOH) [2]: I-A-Q4-029: log P (HCOOH): 4.05
Cc1cc(-n2nc(C(F)(F)F)c(-c3cc(C(F)(F)F)cc(C(F)(F)F)c3)c2N)ccc1C(=O)NCC(F)(F)C(F)F [I-A-Q2-318] | I-A-Q2-318: log P (HCOOH): 4.23 | –
Cc1cc(-n2nc(C(F)(F)F)c(-c3ccccc3Cl)c2N)ccc1C(=O)NCc1ccccn1 [I-A-Q2-351] | I-A-Q2-351: log P (HCOOH): 2.27 | –
Cc1cc(-n2nc(C)c(-c3ccc(F)cc3F)c2N)ccc1C(=O)NCC(F)(F)C(F)F [I-A-Q2-329] | I-A-Q2-329: log P (HCOOH): 2.59 | –
Cc1cc(-n2nc(C(F)(F)F)c(-c3ccc(Cl)c(F)c3)c2N)ccc1C(=O)NCc1ccccn1 [I-A-Q2-353] | I-A-Q2-353: log P (HCOOH): 2.84 | –
Cc1cc(-n2nc(C(F)(F)C(F)(F)F)c(-c3cc(C(F)(F)F)cc(C(F)(F)F)c3)c2N)ccc1C(=O)NCC(F)(F)C(F)F [I-A-Q2-343] | I-A-Q2-343: log P (HCOOH): 4.57 | –
N#Cc1cc(-n2nc(C(F)(F)F)c(-c3ccc(F)c(Cl)c3)c2N)ccc1-n1cncn1 [I-A-Q1-036] | – | log P (HCOOH) [1]: I-A-Q1-036: log P (HCOOH): 3.24
Cc1cc(-n2nc(C)c(-c3c(F)cc(F)cc3F)c2N)ccc1C(=O)NCC(F)(F)C(F)F [I-A-Q2-328] | I-A-Q2-328: log P (HCOOH): 2.48 | –
COC(=O)c1ccc(-n2nc(C(F)(F)F)cc2N)cc1C [XI-A-080] | XI-A-080: log P (HCOOH): 1.97 | –
CC(NC(=O)c1ccc(-n2nc(C(F)(F)F)c(-c3ccccc3Cl)c2N)cc1)C(F)(F)F (stereo not shown) [I-A-Q2-079] | I-A-Q2-079: log P (HCOOH): 3.37 | –
Nc1c(-c2cccc(Br)c2)c(C(F)(F)F)nn1-c1ccc(C(=O)NCc2ccccn2)cc1 [I-A-Q2-174] | I-A-Q2-174: log P (HCOOH): 2.50 | –
Cc1cc(-n2nc(C(F)(F)F)c(-c3ccc(Cl)cc3Cl)c2N)ccc1C(=O)NCc1ncccn1 [I-A-Q2-411] | I-A-Q2-411: log P (HCOOH): 3.17 | –
Cc1nn(-c2ccc(Cl)cn2)c(N)c1-c1ccc(Cl)cc1Cl [I-A-Q4-021] | – | log P (HCOOH) [2]: I-A-Q4-021: log P (HCOOH): 4.70
Nc1c(-c2ccc(Cl)c(Cl)c2)c(C(F)(F)F)nn1-c1ccc(Cl)cn1 [I-A-Q4-043] | – | log P (HCOOH) [2]: I-A-Q4-043: log P (HCOOH): 5.44
Cc1cc(-n2nc(C(F)(F)F)c(-c3cc(Cl)cc(Cl)c3)c2N)ccc1C(=O)N(C)C(C)c1ccncc1 (stereo not shown) [I-A-Q2-211] | I-A-Q2-211: log P (HCOOH): 2.89 | –

SMILES | log P (HCOOH) (HCOOH) | further results
Nc1c(-c2ccc(F)c(F)c2)c(C(F)(F)F)nn1-c1ccc(C(=O)NC2CC2)cc1 [I-A-Q2-176] | I-A-Q2-176: log P (HCOOH): 2.89 | –
COC(=O)CNC(=O)c1ccc(-n2nc(C(F)(F)F)c(-c3cc(Cl)cc(Cl)c3)c2N)cc1C [I-A-Q2-030] | I-A-Q2-030: log P (HCOOH): 3.68 | –
N#Cc1cc(-n2nc(C(F)(F)Oc3ccccc3Cl)c(-c3cc(Cl)cc(C(F)(F)F)c3)c2N)ccc1-n1cncn1 [I-A-Q1-073] | – | log P (HCOOH) [1]: I-A-Q1-073: log P (HCOOH): 4.51
Cc1cc(-n2nc(C(F)(F)F)c(-c3cc(Cl)cc(Cl)c3)c2N)ccc1C(=O)NCCNC(=O)c1ccccn1 [I-A-Q2-036] | I-A-Q2-036: log P (HCOOH): 3.68 | –
Cc1cnc2c(c1)CCCC2NC(=O)c1ccc(-n2nc(C(F)(F)F)c(-c3cc(Cl)cc(Cl)c3)c2N)cc1C (stereo not shown) [I-A-Q2-051] | I-A-Q2-051: log P (HCOOH): 3.06 | –
Cc1nn(-c2ccc(Cl)cn2)c(N)c1-c1c(F)cccc1F [I-A-Q4-036] | – | log P (HCOOH) [2]: I-A-Q4-036: log P (HCOOH): 3.58
CC(C)(CC(F)(F)F)NC(=O)c1ccc(-n2nc(C(F)(F)F)c(-c3cc(Cl)cc(Cl)c3)c2N)cc1 [I-A-Q2-069] | I-A-Q2-069: log P (HCOOH): 4.83 | –
Nc1c(-c2cccc(Cl)c2)c(C(F)(F)F)nn1-c1ccc(C(=O)NC2CCCCC2)cc1 [I-A-Q2-093] | I-A-Q2-093: log P (HCOOH): 4.00 | –
Cc1cc(-n2nc(C(F)(F)F)c(-c3ccccc3Br)c2N)ccc1C(=O)NCC1CC1 [I-A-Q2-422] | I-A-Q2-422: log P (HCOOH): 3.41 | –
Cc1cc(-n2nc(C(F)(F)Cl)c(-c3cc(Cl)cc(C(F)(F)F)c3)c2N)ccc1C(=O)NCC(F)(F)C(F)F [I-A-Q2-322] | I-A-Q2-322: log P (HCOOH): 4.34 | –
N#Cc1cc(-n2nc(C(F)(F)F)c(-c3cc(Cl)cc(Cl)c3)c2N)ccc1-n1cnc(C(N)=O)n1 [I-A-Q1-088] | – | log P (HCOOH) [1]: I-A-Q1-088: log P (HCOOH): 3.06
CC(NC(=O)c1cnc(-n2nc(C(F)(F)F)c(-c3cc(Cl)cc(Cl)c3)c2N)nc1C(F)(F)F)c1ccccn1 (stereo not shown) [I-A-Q2-021] | I-A-Q2-021: log P (HCOOH): 3.48 | –
CNC(=O)c1ccc(-n2nc(C(F)(F)F)c(-c3cc(Cl)cc(Cl)c3)c2N)cc1C [I-A-Q2-013] | I-A-Q2-013: log P (HCOOH): 3.59 | –
Nc1c(-c2ccc(Cl)c(Cl)c2)c(C(F)(F)F)nn1-c1ccc(C(=O)NCC(F)(F)F)cc1 [I-A-Q2-156] | I-A-Q2-156: log P (HCOOH): 3.89 | –
Cc1cc(-n2nc(C(F)(F)F)c(-c3cc(Cl)cc(Cl)c3)c2N)ccc1C(=O)NC1CC1 [I-A-Q2-228] | I-A-Q2-228: log P (HCOOH): 3.78 | –
CC(C)NC(=O)c1ccc(-n2nc(C(F)(F)F)c(-c3ccc(Cl)cc3)c2N)cc1 [I-A-Q2-161] | I-A-Q2-161: log P (HCOOH): 3.37 | –
COC(C)c1nn(-c2ccc(-n3cncn3)c(C#N)c2)c(N)c1-c1cc(Cl)cc(C(F)(F)F)c1 (stereo not shown) [I-A-Q1-023] | – | log P (HCOOH) [1]: I-A-Q1-023: log P (HCOOH): 2.76
Cc1cc(-n2nc(C(F)(F)F)c(-c3cc(Cl)cc(Cl)c3)c2N)ccc1C(=O)NCc1cc(-c2ccccc2)ccn1 [I-A-Q2-206] | I-A-Q2-206: log P (HCOOH): 4.29 | –
Cc1cc(CNC(=O)c2ccc(-n3nc(C(F)(F)F)c(-c4cc(Cl)cc(Cl)c4)c3N)cc2C)[nH]n1 [I-A-Q2-259] | I-A-Q2-259: log P (HCOOH): 3.33 | –
Nc1c(-c2cccc(Br)c2)c(C(F)(F)F)nn1-c1ccc(C(=O)NC2CC2)cc1 [I-A-Q2-173] | I-A-Q2-173: log P (HCOOH): 3.11 | –
Cc1cc(-n2nc(C(F)(F)F)c(-c3ccccc3Cl)c2N)ccc1C(=O)NCC1CC1 [I-A-Q2-413] | I-A-Q2-413: log P (HCOOH): 3.37 | –

SMILES | log P (HCOOH) (HCOOH) | further results
Nc1c(-c2cc(Cl)cc(Cl)c2)c(C(F)(F)F)nn1-c1ccc(CNC(=O)C2CC2)c(Cl)c1 [I-A-Q3-022] | – | log P (HCOOH) [1]: I-A-Q3-022: log P (HCOOH): 4.12
CC(NC(=O)c1ccc(-n2nc(C(F)(F)F)c(-c3cccc(Br)c3)c2N)cc1)C(F)(F)F (stereo not shown) [I-A-Q2-172] | I-A-Q2-172: log P (HCOOH): 3.73 | –
Cc1cc(-n2nc(C(F)(F)F)c(-c3cc(Cl)cc(Cl)c3)c2N)ccc1C(=O)NCc1ccncn1 [I-A-Q2-260] | I-A-Q2-260: log P (HCOOH): 3.33 | –
Cc1cc(-n2nc(C)c(-c3cc(Cl)ccc3Cl)c2N)ccc1C(=O)NCc1ccccn1 [I-A-Q2-375] | I-A-Q2-375: log P (HCOOH): 2.04 | –
COC(=O)c1cnc(-n2nc(C(F)(F)F)c(-c3cc(Cl)cc(Cl)c3)c2N)nc1C(F)(F)F [I-A-Q4-063] | – | log P (HCOOH) [2]: I-A-Q4-063: log P (HCOOH): 4.66
Cc1cc(-n2nc(C(F)(F)F)c(-c3c(F)cc(F)cc3F)c2N)ccc1C(=O)NCC(F)(F)C(F)F [I-A-Q2-307] | I-A-Q2-307: log P (HCOOH): 3.27 | –
Cc1cc(-n2nc(C(F)(F)F)c(-c3cc(Cl)cc(Cl)c3)c2N)ccc1C(=O)NCC1CCCCC1 [I-A-Q2-263] | I-A-Q2-263: log P (HCOOH): 5.08 | –
Cc1ccccc1-c1c(C(F)(F)F)nn(-c2ccc(Cl)cn2)c1N [I-A-Q4-054] | – | log P (HCOOH) [2]: I-A-Q4-054: log P (HCOOH): 4.64
Cc1cc(-n2nc(C(F)(F)F)c(-c3cc(Cl)cc(Cl)c3)c2N)ccc1C(=O)NCc1ccc([N+](=O)[O-])cc1 [I-A-Q2-249] | I-A-Q2-249: log P (HCOOH): 4.28 | –
Cc1cc(-n2nc(C(F)(F)F)c(-c3cc(Cl)cc(Cl)c3)c2N)ccc1C(=O)NCCc1ccccc1 [I-A-Q2-050] | I-A-Q2-050: log P (HCOOH): 4.64 | –
Cc1cc(-n2nc(C(F)(F)F)c(-c3ccc(Cl)c(Cl)c3)c2N)ccc1C(=O)NC(C)C(F)(F)F (stereo not shown) [I-A-Q2-019] | I-A-Q2-019: log P (HCOOH): 4.57 | –
CC(=O)Nc1c(-c2cc(Cl)cc(Cl)c2)c(C(F)(F)F)nn1-c1ccc(C(=O)NCc2ccccn2)c(C)c1 [I-A-Q2-197] | I-A-Q2-197: log P (HCOOH): 2.76 | –
Cc1cc(-n2nc(C(F)(F)F)c(-c3cc(Cl)cc(Cl)c3)c2N)ccc1C(=O)NCc1ncccc1C [I-A-Q2-029] | I-A-Q2-029: log P (HCOOH): 3.24 | –
CC(=O)Nc1[nH]nc(C(F)(F)F)c1-c1ccc(Cl)cc1Cl [IX-204] | – | log P (HCOOH) (HCOOH, compounds of the formula (IX), Table 11): IX-204: log P (HCOOH): 2.79
CC(C)CC(NC(=O)c1ccc(-n2nc(C(F)(F)F)c(-c3cc(Cl)cc(Cl)c3)c2N)cc1)C(F)(F)F (stereo not shown) [I-A-Q2-070] | I-A-Q2-070: log P (HCOOH): 5.25 | –
N#Cc1cc(-n2nc(C(F)(F)F)cc2N)ccc1-n1cncn1 [XI-A-079] | XI-A-079: log P (HCOOH): 2.80 | –
Cc1cc(-n2nc(C(F)(F)F)c(-c3cc(Cl)cc(Cl)c3)c2I)ccc1C(=O)NCc1ncccn1 [I-A-Q2-275] | I-A-Q2-275: log P (HCOOH): 4.47 | –
COC(=O)c1ccc(-n2nc(C(F)(F)F)c(-c3cc(Cl)cc(Cl)c3)c2N)cc1Cl [I-A-Q4-104] | – | log P (HCOOH) [2]: I-A-Q4-104: log P (HCOOH): 5.07
Cc1cc(-n2nc(C(F)(F)F)c(-c3ccccc3C)c2N)ccc1C(=O)NCc1ccccn1 [I-A-Q2-359] | I-A-Q2-359: log P (HCOOH): 2.34 | –
